Measurements as given in patent publication US20140120060A1, “TREATMENT OF RHEUMATOID ARTHRITIS AND ASTHMA USING PI3 KINASE INHIBITORS” (INFINITY PHARMACEUTICALS, INC., priority 2012, published 2014).

test system: B cell; assay: B cell proliferation; type: cell-based; details: not given

SMILES	EC50 [nM]
Cc1cccc2cc(Cn3nc(-c4ccc5nc(N)sc5c4)c4c(N)ncnc43)n(-c3ccccc3)c(=O)c12 [Compound 252]	< 100
Cc1cccc2cc(Cn3nc(I)c4c(N)ncnc43)n(C3CCCC3)c(=O)c12 [Compound 57]	< 10000
Cc1cccnc1-n1c(Cn2nc(Br)c3c(N)ncnc32)cc2cccc(C)c2c1=O [Compound 17]	< 100
Cc1cccc2cc(Cn3nc(-c4cc(O)cc(F)c4)c4c(N)ncnc43)n(-c3ccccc3O)c(=O)c12 [Compound 90]	< 100
Nc1ncnc2c1c(-c1cc(O)cc(F)c1)nn2Cc1cc2cccc(Cl)c2c(=O)n1C1CC1 [Compound 142]	< 100
CC(C)n1c(Cn2nc(-c3cccc(O)c3)c3c(N)ncnc32)cc2cccc(F)c2c1=O [Compound 133]	< 1000
Cc1cccc2cc(C(C)Nc3ncnc4[nH]cnc34)n(-c3ccc(F)cc3)c(=O)c12 (stereo not shown) [Compound 213]	< 100
CCC(Nc1ncnc2[nH]cnc12)c1cc2cccc(C)c2c(=O)n1-c1ccccc1C (stereo not shown) [Compound 202]	< 100
Cc1cccc2cc(Cn3nc(-c4ccc5sc(N)nc5c4)c4c(N)ncnc43)n(-c3ccccc3)c(=O)c12 [Compound 277]	< 100
Cc1cccc2cc(Cn3nc(I)c4c(N)ncnc43)n(-c3ccccc3O)c(=O)c12 [Compound 79]	< 1000
Cc1cccc2cc(Cn3nc(-c4cccc(O)c4)c4c(N)ncnc43)n(-c3ccccc3O)c(=O)c12 [Compound 81]	< 100
Cc1ccccc1-n1c(Cn2nc(C(N)=O)c3c(N)ncnc32)cc2cccc(C)c2c1=O [Compound 298]	< 100
Cc1ccccc1-n1c(Cn2nc(-c3cnc4[nH]ccc4c3)c3c(N)ncnc32)cc2cccc(C)c2c1=O [Compound 48]	< 100
CCC(Nc1ncnc2[nH]cnc12)c1cc2ccccc2c(=O)n1-c1ccccc1 (stereo not shown) [Compound 221]	< 100
Cc1ccccc1-n1c(Cn2nc(-c3cc(O)cc(F)c3)c3c(N)ncnc32)cc2ccccc2c1=O [Compound 33]	< 100
Cc1cccc2cc(C(C)Nc3ncnc4[nH]cnc34)n(-c3c(F)cccc3F)c(=O)c12 (stereo not shown) [Compound 216]	< 100
Cc1ccccc1-n1c(Cn2cnc3c(N)ncnc32)cc2cccc(C)c2c1=O [Compound 5]	< 10000
Cc1ccccc1-n1c(Cn2nc(C#C[C@H](C)O)c3c(N)ncnc32)cc2cccc(C)c2c1=O [Compound 85]	< 1000
Cc1cccc2cc(Cn3nc(-c4cn[nH]c4)c4c(N)ncnc43)n(-c3cccc(F)c3)c(=O)c12 [Compound 166]	< 100
Cc1cccc2cc(Cn3nc(-c4cccc(O)c4)c4c(N)ncnc43)n(-c3ccccc3Cl)c(=O)c12 [Compound 96]	< 100
Cc1cccc2cc([C@H](C)Nc3ncnc4[nH]cnc34)n(-c3ccccc3)c(=O)c12 [Compound 196]	< 100
Cc1ccccc1-n1c(Cn2nc(C#C[C@@H](C)O)c3c(N)ncnc32)cc2ccccc2c1=O [Compound 32]	< 1000

SMILES	EC50 [nM]
Cc1ccccc1-n1c(Cn2nc(-c3ccc(F)c(O)c3)c3c(N)ncnc32)cc2ccccc2c1=O [Compound 54]	< 100
Cc1cccc2cc(Cn3nc(-c4cc(O)cc(F)c4)c4c(N)ncnc43)n(-c3ccccc3F)c(=O)c12 [Compound 3]	< 100
Cc1cccc2cc(Cn3nc(-c4cccc(O)c4)c4c(N)ncnc43)n(-c3ccccc3F)c(=O)c12 [Compound 10]	< 1000
Cc1ccccc1-n1c(Cn2nc(-c3cccc(F)c3)c3c(N)ncnc32)cc2cccc(C)c2c1=O [Compound 41]	< 1000
Cc1ccccc1-n1c(Cn2nc(-c3ccc(F)cc3)c3c(N)ncnc32)cc2cccc(C)c2c1=O [Compound 27]	< 10000
COc1ccccc1-n1c(Cn2nc(-c3cc(O)cc(F)c3)c3c(N)ncnc32)cc2cccc(C)c2c1=O [Compound 84]	< 100
CCC(Nc1ncnc2[nH]cnc12)c1cc2cccc(C)c2c(=O)n1-c1ccc(F)cc1 (stereo not shown) [Compound 223]	< 100
CC(=O)Nc1nc2ccc(-c3nn(Cc4cc5cccc(C)c5c(=O)n4C(C)C)c4ncnc(N)c34)cc2s1 [Compound 154]	< 100
Cc1cccnc1-n1c(Cn2nc(-c3ccc(Cl)c(O)c3)c3c(N)ncnc32)cc2cccc(C)c2c1=O [Compound 72]	< 100
CCc1ccccc1-n1c(Cn2nc(I)c3c(N)ncnc32)cc2cccc(C)c2c1=O [Compound 77]	< 1000
Cc1cccc2cc(Cn3nc(C#C[C@@H](C)O)c4c(N)ncnc43)n(C3CC3)c(=O)c12 [Compound 100]	< 1000
Cc1ccccc1-n1c(Cn2nc(C#C[C@@H](C)O)c3c(N)ncnc32)cc2cccc(F)c2c1=O [Compound 43]	< 10000
Cc1cccc2cc(Cn3nc(-c4cccc(Cl)c4)c4c(N)ncnc43)n(-c3ccccc3F)c(=O)c12 [Compound 38]	> 10000
Cc1cccnc1-n1c(Cn2nc(C#C[C@@H](C)O)c3c(N)ncnc32)cc2cccc(C)c2c1=O [Compound 69]	< 1000
CC(=O)Nc1nc2ccc(-c3nn(Cc4cc5cccc(C)c5c(=O)n4-c4ccccc4C)c4ncnc(N)c34)cc2s1 [Compound 53]	< 100
CC(=O)Nc1nc2ccc(-c3nn(Cc4cc5cccc(F)c5c(=O)n4C(C)C)c4ncnc(N)c34)cc2s1 [Compound 158]	< 100
Cc1ccccc1-n1c(Cn2nc(Cl)c3c(N)ncnc32)cc2cccc(C)c2c1=O [Compound 20]	< 1000
CCC(Nc1ncnc2[nH]cnc12)c1cc2cccc(C)c2c(=O)n1C(C)C (stereo not shown) [Compound 219]	< 100
Cc1cccc2cc([C@H](C)Nc3ncnc4[nH]cc(Br)c34)n(-c3ccccc3)c(=O)c12 [Compound 257]	< 100
Cc1cccc2cc(Cn3nc(-c4cccc(O)c4)c4c(N)ncnc43)n(-c3ccccc3C(C)C)c(=O)c12 [Compound 82]	< 100
Cc1cccc2cc(C(C)Nc3ncnc4[nH]cnc34)n(C(C)C)c(=O)c12 (stereo not shown) [Compound 209]	< 100

test system: developing adjuvant arthritis; assay: Freund's complete adjuvant induced rat model of arthritis; type: in vivo; details: reference treatment, dose not stated
From the text: Freund's complete adjuvant induced arthritis in the rat is an experimental model of polyarthritis that has been widely used for nonclinical testing of numerous anti-arthritic agents that are either under nonclinical or clinical investigation, or are currently used as therapeutics in this disease.

SMILES	inhibition of ankle diameter AUC (d7-14) increase [%]	reduction of histopathologic bone resorption [%]	reduction of histopathologic inflammation [%]
C[C@@H]1C[C@H]2[C@@H]3CCC4=CC(=O)C=C[C@]4(C)[C@@]3(F)[C@@H](O)C[C@]2(C)[C@@]1(O)C(=O)CO [dexamethasone, reference compound]	71	97	56
